# According to patent US4091092A, “Polymyxin F and process of producing polymyxin F” (priority 1977, dated 1978):
# Key:
# Assay in all cases: Comparison of activities of polymyxins B and F, MIC
# Assay type in all cases: cell-based
# Escherichia coli SC8600 = conditions: Polymyxin-resistant variant of E. coli SC8599
# Excerpt: (§1) *Organisms from the Squibb Culture Collection.
# ^a Polymyxin-resistant variant of E. coli SC8599
# Escherichia coli SC9253 = conditions: Polymyxin-resistant variant of E. coli SC9251
# Excerpt: as §1
# (§2) ^b Polymyxin-resistant variants of E. coli SC9251
# Escherichia coli SC9252 = conditions: Polymyxin-resistant variant of E. coli SC9251
# Excerpt: as §1, §2
# Escherichia coli SC9251 = conditions: E. coli SC9251
# Excerpt: as §1
# Escherichia coli SC8599 = conditions: E. coli SC8599
# Excerpt: as §1
substance,measurement,setting,value
Polymyxin B,MIC,Escherichia coli SC8600,> 100 µg/mL
same,MIC,Escherichia coli SC9253,50.0 µg/mL
same,MIC,Escherichia coli SC9252,18.7 µg/mL
same,MIC,Escherichia coli SC9251,0.06 µg/mL
same,MIC,Escherichia coli SC8599,0.1 µg/mL
